From publication PMC9964746, “Mechanism of Action and Structure–Activity Relationships of Tetracyclic Small Molecules Acting as Universal Positive Allosteric Modulators of the Cholecystokinin Receptor” (Membranes, 2023)
Several values for one entry are separate records, joined by “and”; a condition that tells them apart may be missing. Equal values may be shown once.

Assays:
Type in all cases: cell-based
CCK1R [1] = biological target: T1, CCK1R (Homo sapiens, UniProt P32238); experiment: IP-One accumulation TR-FRET assay, PAM format, HEK-293 CCK1R cells; design: expressed in transfected cells; host or cells: HEK-293; conditions: HEK-293 CCK1R cells; for Emax: HEK293, relative to CCK control; for Emax / CCK1R PAM (IP-One) Score (activity score = normalized Emax × pEC50): PAM format; for Emax / EC50: average ± SD; for EC50: PAM format with EC20 CCK
T1 sequence (P32238 1-428): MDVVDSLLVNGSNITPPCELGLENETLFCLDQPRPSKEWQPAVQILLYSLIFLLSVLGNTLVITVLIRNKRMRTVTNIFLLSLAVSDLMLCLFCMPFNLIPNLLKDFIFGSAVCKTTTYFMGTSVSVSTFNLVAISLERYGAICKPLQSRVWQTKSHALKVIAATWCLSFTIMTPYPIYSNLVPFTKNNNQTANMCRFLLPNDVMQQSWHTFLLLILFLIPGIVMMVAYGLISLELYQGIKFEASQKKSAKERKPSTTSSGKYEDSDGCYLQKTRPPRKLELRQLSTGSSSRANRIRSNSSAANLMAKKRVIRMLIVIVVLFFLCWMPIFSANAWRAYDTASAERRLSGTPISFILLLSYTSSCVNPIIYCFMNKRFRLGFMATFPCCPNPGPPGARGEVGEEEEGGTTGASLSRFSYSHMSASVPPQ
Procedure: (§1) For structure–activity relationship studies, we performed myo-inositol-1-phosphate (IP-One) accumulation assays with TR-FRET technology applied to the HEK-293 cell line overexpressing CCK1Rs, as we had described in our high throughput screening effort. In brief, thawed cryopreserved cell stocks were re-suspended in IP-One assay media consisting of phenol-red free DMEM (Corning, Corning, NY, USA, #17-205-CV) with 10% FBS, 1% penicillin (10,000 units)/streptomycin (10 mg) (Pen/Strep, Thermo Fisher Scientific, Waltham, MA, USA, Gibco #15140122), and 1% L-glutamine (200 mM) (Gibco #25030081) and diluted to required cell densities. Then, the cell suspension was dispensed into a 1536-well tissue culture microplate (Corning, #3727), and the plate was incubated overnight at 37 °C and 5% CO^2. After 16–20 h, DMSO or compounds were added with an Echo liquid handler (Labcyte, San Jose, CA, USA), resulting in a top final compound concentration of 50 µM diluted 2-fold for 16-point dose–responses. For the positive allosteric modulator (PAM) format, orthosteric stimulator (CCK) dilutions for control wells were prepared in assay media containing 150 mM lithium chloride (LiCl, 50 mM final, Sigma-Aldrich, St Louis, MO, USA, #L7026). After a 30 min incubation of test compounds at 37 °C and 5% CO2, orthosteric stimulator dilutions (for PAM format) or equivalent dilutions of DMSO (for agonist format) were added to designated wells using BioRaptr (Beckman Coulter, Brea, CA, USA). In addition, CCK control ligand dilutions were included on each test plate. After that, the plate was incubated for 1 h at 37 °C and 5% CO^2 and equilibrated to room temperature. Detection reagents from the IP-One Gq detection kit from Cisbio (Cisbio US Inc., Bedford, MA, USA, #62IPAPEJ) were added, and after 1 h at RT, IP-One content was measured with a PHERAstar FSX microplate reader (BMG Labtech, Ortenberg, Germany). Control ligand dose–responses were analyzed using GraphPad Prism 9.3.1 (San Diego, CA, USA) to validate adequate control and test well concentrations for positive allosteric modulation (PAM) and agonist formats. Dose–response curves were performed as 16-point 2-fold dilutions in duplicates in at least three independent experiments. Large data sets were uploaded and analyzed with CBIS (Chemical and Biology Information System software, ChemInnovation Software, Inc., San Diego, CA, USA). Further data analysis for detailed SAR studies was conducted using the D360 software (Certara).
(§2) The potency and efficacy data for these compounds were used to calculate their activity scores using the following formula: Activity Score = normalized Emax × pEC50. Normalized Emax represents the efficacy of the compound as a fractional response relative to that of the CCK control ligand. pEC50 represents the positive logarithmic value of compound EC50 concentrations in (M).

CCK1R [2] = biological target: T1, CCK1R; experiment: IP-One accumulation TR-FRET assay, agonist format, HEK-293 CCK1R cells; design: expressed in transfected cells; host or cells: HEK-293; conditions: for Emax: HEK293, relative to CCK control, read-out: CCK1R Ago (IP-One) Emax
Procedure: as §1, §2

[3] = biological target: T2, vasopressin-2 receptor (AVP2R) (Homo sapiens, UniProt P30518); experiment: AVP2R cAMP HTRF accumulation assay; conditions: CHO-K1 AVP2R cells; for AVP2R PAM (cAMP) Score (activity score = normalized Emax × pEC50): PAM format; for EC50 / Emax: PAM format with vasopressin, original hits: agonist and PAM data combined, average ± SD
T2 construct: expressed in transfected cells; host or cells: CHO-K1 (PAM format); HEK-293 (agonist format)
Procedure: Possible off-target biological effects. […] Here, we tested them at the vasopressin-2 receptor (AVP2R), representing a class A GPCR structurally related to CCK1R, which is coupled to Gs. The activity at AVP2R was tested using AVP2R-overexpressing CHO-K1 (PAM format) or HEK-293 (agonist format) cells, stimulating the cells with vasopressin. Original hits were tested in both agonist and PAM formats. Since all recognized compound responses were present in both formats, we continued to screen analogs in only the PAM format (also able to capture agonist effects) in CHO-K1 AVP2R cells for potential enhanced sensitivity. The dose–response data sets for original hits were combined, as the PAM and agonist effects were indistinguishable. In brief, arginine vasopressin (AVP) orthosteric stimulator dilutions and ligand and compound dose–response titrations in DMSO were transferred onto a 1536-well plate (Corning #3725) using an Echo liquid handler (Labcyte). Thawed cryopreserved cell stocks were diluted in stimulation buffer consisting of HBSS (Hank’s Balanced Salt Solution with Ca^2+ and Mg^2+, Gibco #24020117), 5 mM HEPES (hydroxyethyl piperazineethanesulfonic acid), 0.5 mM IBMX (3-isobutyl-1-methylxanthine, Sigma-Aldrich), and 0.075% BSA (7.5% DTPA-purified bovine serum albumin, PerkinElmer). The resulting cell suspension was added to the microplate and incubated with test compounds at room temperature for 30 min. Then, the detection reagents from the Cisbio cAMP Gs Dynamic HTRF detection kit were added. The plate was kept at room temperature for 30 min and read on a PHERAstar FSX microplate reader. Dose–response curves were performed as 16-point 2-fold dilutions in duplicate in at least two independent experiments.

T2 sequence (P30518 whole entry): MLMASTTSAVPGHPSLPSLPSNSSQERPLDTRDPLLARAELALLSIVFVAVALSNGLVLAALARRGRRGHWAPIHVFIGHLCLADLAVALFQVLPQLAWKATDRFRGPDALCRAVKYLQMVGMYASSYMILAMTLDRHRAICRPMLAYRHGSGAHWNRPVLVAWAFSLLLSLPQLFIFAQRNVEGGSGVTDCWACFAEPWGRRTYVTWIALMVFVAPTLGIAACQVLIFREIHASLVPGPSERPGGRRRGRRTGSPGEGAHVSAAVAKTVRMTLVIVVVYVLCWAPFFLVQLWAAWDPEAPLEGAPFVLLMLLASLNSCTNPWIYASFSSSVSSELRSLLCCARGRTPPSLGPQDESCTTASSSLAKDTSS

Compound	Emax (CCK1R [1]) [%]	CCK1R PAM (IP-One) Score (activity score = normalized Emax × pEC50) (CCK1R [1])	EC50 (CCK1R [1]) [µM]	CCK1R Ago (IP-One) Score (activity score = normalized Emax × pEC50) (CCK1R [2])	Emax (CCK1R [2]; average ± SD) [%]	EC50 (CCK1R [2]; average ± SD, read-out: CCK1R Ago (IP-One) EC50) [µM]	AVP2R PAM (cAMP) Score (activity score = normalized Emax × pEC50) [3]	EC50 [3] [µM]	Emax [3] [%]
CN(C)CCCNc1nnnc2c1sc1nc(N3CCCCC3)c3c(c12)CCCC3 [CMP-23]	38 ± 13	1.86	9.6 ± 3.6	1.85	41 ± 1	30 ± 4.9	2.9 and 2.93	3.1 ± 1.3	53 ± 3
CN(C)CCNc1nnnc2c1sc1nc(N3CCCCC3)c3c(c12)CCCC3 [CMP-27]	38 ± 14	1.7	18.4 ± 8.1	0	0		3.5 and 3.51	9.1 ± 1	70 ± 4
CCCc1nc2oc3c(N4CCN(CCO)CC4)ncnc3c2c2c1CCCC2 [CMP-30]	36 ± 16	1.55	27.1 ± 10.7	0			1.52	5.9 ± 3.8	29
CN1CCN(c2ncnc3c2sc2nc(N4CCCCC4)c4c(c23)CCCC4)CC1 [CMP-31]	35 ± 14	1.5 and 1.54	29.6 ± 1.8	0	0		1.26	5.4 ± 1.7	24 ± 3
CCCCc1nc2sc3c(NCCN4CCOCC4)ncnc3c2c2c1CCCC2 [CMP-32]	41 ± 34	1.52	23.9 ± 25.8	0			1.67	9.3 ± 11.1	33 ± 26
CCN(CC)CCNc1ncnc2c1oc1nc(CC(C)C)c3c(c12)CCC3 [CMP-33]	35 ± 19	1.51	18.8 ± 7.7	0			1.60	21 ± 6.5	34 ± 1
CC(C)Cc1nc2sc3c(NCCN4CCOCC4)ncnc3c2c2c1CCCC2 [CMP-34]	34 ± 13	1.50	29 ± 13.1	0			2.13	7.8 ± 4	42 ± 17
CN(C)CCNc1ncnc2c1sc1nc(N3CCCCC3)c3c(c12)CCCC3 [CMP-35]	36 ± 20	1.5 and 1.49	31.3 ± 14.9	0	0		1.6 and 1.59	7.9 ± 2.5	31
